Test results reported in ChEMBL document CHEMBL1201862, “PubChem BioAssay data set” (2004).
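A five-concentration, 48-hour dose response in 96-well plates underlies each endpoint, interpolated linearly between surrounding concentrations. GI50 is the concentration that inhibits growth by half.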 Active and inactive are the calls of the source. No stated cut-off is given here; in the data, active = GI50 up to about 1.1 µM and inactive = higher.

Legend:
Experiment in all cases: inhibition of tumour cell growth, NCI panel, 48 h
A498 = system: A498
BT-549 = system: BT-549
EKVX = system: EKVX
HCC 2998 = system: HCC 2998
HOP-62 = system: HOP-62
HOP-92 = system: HOP-92
Hs-578T = system: Hs-578T
M14 = system: M14
MDA-MB-231 = system: MDA-MB-231
Malme-3M = system: Malme-3M
NCI-H226 = system: NCI-H226
OVCAR-5 = system: OVCAR-5
PC-3 = system: PC-3
SF-295 = system: SF-295
SK-MEL-2 = system: SK-MEL-2
SNB-75 = system: SNB-75
T47D = system: T47D
UACC-257 = system: UACC-257
UACC-62 = system: UACC-62

| Structure (SMILES) | GI50 (A498) | GI50 (BT-549) | GI50 (EKVX) | GI50 (HCC 2998) | GI50 (HOP-62) | GI50 (HOP-92) | GI50 (Hs-578T) | GI50 (M14) | GI50 (MDA-MB-231) | GI50 (Malme-3M) | GI50 (NCI-H226) | GI50 (OVCAR-5) | GI50 (PC-3) | GI50 (SF-295) | GI50 (SK-MEL-2) | GI50 (SNB-75) | GI50 (T47D) | GI50 (UACC-257) | GI50 (UACC-62) |
| --- | --- | --- | --- | --- | --- | --- | --- | --- | --- | --- | --- | --- | --- | --- | --- | --- | --- | --- | --- |
| Nc1ncnc2c1ccn2C1OC2COP(=O)(O)OC2C1O (stereo not drawn) | 1.15 µM (inactive) | 0.482 µM (active) | 2.64 µM (inactive) | 0.942 µM (active) | 0.501 µM (active) | 0.462 µM (active) | 0.502 µM (active) | 0.069 µM (active) | 0.33 µM (active) | 0.27 µM (active) | 2.9 µM (inactive) | 0.849 µM (active) | 0.163 µM (active) | 0.641 µM (active) | 0.458 µM (active) | 0.231 µM (active) | 0.989 µM (active) | 1.26 µM (inactive) | 0.0914 µM (active) |
| O=C(O)c1ccc(C2SCc3nc4ccccc4n32)cc1 (stereo not drawn) | > 100 µM (inactive) | > 100 µM (inactive) | > 100 µM (inactive) | > 100 µM (inactive) | > 100 µM (inactive) | > 100 µM (inactive) | > 100 µM (inactive) | > 100 µM (inactive) | > 100 µM (inactive) | > 100 µM (inactive) | > 100 µM (inactive) | > 100 µM (inactive) | > 100 µM (inactive) | > 100 µM (inactive) | > 100 µM (inactive) | > 100 µM (inactive) | > 10 µM (inactive) | > 100 µM (inactive) |  |
| Cc1cccc2c1CC(Cc1ccccc1C(=O)O)C2=O (stereo not drawn) |  | > 100 µM (inactive) | > 100 µM (inactive) | > 100 µM (inactive) | > 100 µM (inactive) | > 100 µM (inactive) | > 100 µM (inactive) | > 100 µM (inactive) | > 100 µM (inactive) | > 100 µM (inactive) | > 100 µM (inactive) | > 100 µM (inactive) | > 100 µM (inactive) | > 100 µM (inactive) | > 100 µM (inactive) | > 100 µM (inactive) | > 100 µM (inactive) | > 100 µM (inactive) | > 100 µM (inactive) |
| COc1ccc(/N=N/C(=N\c2ccc(Cl)cc2)c2ccc(N(CCC#N)CCC#N)cc2)cc1 | 10.4 µM (inactive) | 12.6 µM (inactive) | 51.4 µM (inactive) | 4.91 µM (inactive) | 79.3 µM (inactive) | 33.2 µM (inactive) | 87.9 µM (inactive) | 57.5 µM (inactive) | 14.8 µM (inactive) |  | > 100 µM (inactive) | 47 µM (inactive) | 25.5 µM (inactive) | 2.2 µM (inactive) | 0.851 µM (active) | 39 µM (inactive) | 1.71 µM (inactive) | 11.4 µM (inactive) | 1.49 µM (inactive) |
| CC(=O)OC1[C@@H](OC(C)=O)CN(OCc2ccccc2)C[C@H]1OC(C)=O (stereo partly drawn) | > 100 µM (inactive) | > 100 µM (inactive) | > 100 µM (inactive) | > 100 µM (inactive) | > 100 µM (inactive) | > 100 µM (inactive) | > 100 µM (inactive) | > 100 µM (inactive) | > 100 µM (inactive) |  | > 100 µM (inactive) | > 100 µM (inactive) | > 100 µM (inactive) | > 100 µM (inactive) | > 100 µM (inactive) | > 100 µM (inactive) | > 100 µM (inactive) | > 100 µM (inactive) | > 100 µM (inactive) |
| CC(C)(C)/C(O)=C\c1nc2cc(F)c(F)cc2[nH]c1=O | > 100 µM (inactive) | > 100 µM (inactive) | > 100 µM (inactive) | > 100 µM (inactive) | > 100 µM (inactive) | > 100 µM (inactive) | > 100 µM (inactive) | > 100 µM (inactive) | 25.1 µM (inactive) |  | > 100 µM (inactive) |  | > 100 µM (inactive) | > 100 µM (inactive) | > 100 µM (inactive) | > 100 µM (inactive) | > 100 µM (inactive) | > 100 µM (inactive) | > 100 µM (inactive) |
| O=C1CN(C(=O)C2CCCN2C(=O)C2CCCN2)C(=O)CN1 (stereo not drawn) | 55.2 µM (inactive) | > 100 µM (inactive) | > 100 µM (inactive) | > 100 µM (inactive) | > 100 µM (inactive) | > 100 µM (inactive) | > 100 µM (inactive) | > 100 µM (inactive) | > 100 µM (inactive) | > 100 µM (inactive) | > 100 µM (inactive) | > 100 µM (inactive) | > 100 µM (inactive) | > 100 µM (inactive) |  | > 100 µM (inactive) | > 100 µM (inactive) |  | > 100 µM (inactive) |
| COc1cc2c(cc1OC)C1C=NC(C2)c2cc(OC)c(OC)cc21 (stereo not drawn) | > 100 µM (inactive) | 81.8 µM (inactive) | 85.9 µM (inactive) | > 100 µM (inactive) | > 100 µM (inactive) | 4.49 µM (inactive) | > 100 µM (inactive) | > 100 µM (inactive) | > 100 µM (inactive) |  | 6.97 µM (inactive) | > 100 µM (inactive) | > 100 µM (inactive) | > 100 µM (inactive) | > 100 µM (inactive) | > 100 µM (inactive) | 90.8 µM (inactive) | > 100 µM (inactive) | > 100 µM (inactive) |
